Test results: patent US9981975B2, “Pyrrolotriazine compounds as tam inhibitors” (Incyte Corporation, priority 2016, dated 2018)

Key:
Assay type in all cases: biochemical
[1] = molecular target: c-Mer (Homo sapiens (Human), UniProt Q12866); experiment: TAM Enzymatic Assay (HTRF), Mer; settings: 60 min, room temperature
Outline: (§1)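 HTRF kinase assay in 50 mM HEPES pH 7.5, 10 mM MgCl2, 1 mM EGTA, 0.01% NP-40, 2 mM DTT; compound in DMSO pre-dispensed, enzyme added, reaction started with substrate, 60 min at room temperature in the dark.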

[2] = molecular target: phosphor-Axl (Homo sapiens (Human), UniProt P30530); experiment: TAM Enzymatic Assay (HTRF), Axl; settings: recombinant autophosphorylated Axl, 60 min, room temperature
phosphor-Axl, sequence (P30530 26-894): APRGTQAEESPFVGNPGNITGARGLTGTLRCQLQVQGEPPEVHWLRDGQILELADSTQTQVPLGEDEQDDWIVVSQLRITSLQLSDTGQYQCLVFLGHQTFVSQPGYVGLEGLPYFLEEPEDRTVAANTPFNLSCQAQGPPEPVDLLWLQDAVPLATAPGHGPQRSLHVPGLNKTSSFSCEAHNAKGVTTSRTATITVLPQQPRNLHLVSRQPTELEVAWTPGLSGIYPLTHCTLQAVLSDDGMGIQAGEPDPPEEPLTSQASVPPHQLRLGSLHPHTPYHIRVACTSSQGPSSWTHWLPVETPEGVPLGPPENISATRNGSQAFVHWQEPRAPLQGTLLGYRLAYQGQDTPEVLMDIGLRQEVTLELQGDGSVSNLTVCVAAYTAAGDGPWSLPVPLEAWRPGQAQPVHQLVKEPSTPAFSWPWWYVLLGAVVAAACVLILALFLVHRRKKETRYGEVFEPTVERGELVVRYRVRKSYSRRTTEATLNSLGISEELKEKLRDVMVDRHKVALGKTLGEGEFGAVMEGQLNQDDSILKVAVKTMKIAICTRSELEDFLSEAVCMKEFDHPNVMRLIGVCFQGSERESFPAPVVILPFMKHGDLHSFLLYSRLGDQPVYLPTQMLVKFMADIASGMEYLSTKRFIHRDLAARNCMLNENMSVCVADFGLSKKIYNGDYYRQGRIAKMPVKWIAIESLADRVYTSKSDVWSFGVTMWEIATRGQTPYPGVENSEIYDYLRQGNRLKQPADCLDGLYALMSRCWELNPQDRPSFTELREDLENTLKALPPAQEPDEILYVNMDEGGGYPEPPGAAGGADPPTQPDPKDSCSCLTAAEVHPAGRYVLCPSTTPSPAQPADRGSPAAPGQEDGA

[3] = molecular target: Tyro3 (Homo sapiens (Human), UniProt Q06418); experiment: TAM Enzymatic Assay (HTRF), Tyro3; settings: Tyro3, 60 min, room temperature
Tyro3, sequence (Q06418 41-890): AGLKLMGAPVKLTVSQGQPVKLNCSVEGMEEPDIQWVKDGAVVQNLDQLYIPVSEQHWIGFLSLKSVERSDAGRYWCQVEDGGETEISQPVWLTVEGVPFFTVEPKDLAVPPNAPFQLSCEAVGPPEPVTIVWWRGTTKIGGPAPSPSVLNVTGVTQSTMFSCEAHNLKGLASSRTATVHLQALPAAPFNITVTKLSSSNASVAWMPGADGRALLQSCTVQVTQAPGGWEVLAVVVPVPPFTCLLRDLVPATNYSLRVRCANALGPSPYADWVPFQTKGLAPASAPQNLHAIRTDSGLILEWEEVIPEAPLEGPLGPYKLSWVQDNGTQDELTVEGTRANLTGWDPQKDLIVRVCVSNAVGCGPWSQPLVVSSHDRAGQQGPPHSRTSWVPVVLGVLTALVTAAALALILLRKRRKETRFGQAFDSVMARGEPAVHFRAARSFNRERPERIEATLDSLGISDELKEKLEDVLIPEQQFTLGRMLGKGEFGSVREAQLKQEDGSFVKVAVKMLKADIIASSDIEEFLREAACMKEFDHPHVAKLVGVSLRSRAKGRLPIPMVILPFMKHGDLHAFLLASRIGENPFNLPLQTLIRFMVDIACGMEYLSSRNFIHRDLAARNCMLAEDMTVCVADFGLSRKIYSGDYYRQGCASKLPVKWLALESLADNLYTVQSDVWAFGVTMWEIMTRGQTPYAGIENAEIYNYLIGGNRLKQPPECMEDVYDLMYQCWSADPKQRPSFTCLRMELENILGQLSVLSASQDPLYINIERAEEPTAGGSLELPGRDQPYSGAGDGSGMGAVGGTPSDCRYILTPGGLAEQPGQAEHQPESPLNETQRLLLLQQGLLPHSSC
Outline: as §1

c-Mer, sequence (Q12866 21-999): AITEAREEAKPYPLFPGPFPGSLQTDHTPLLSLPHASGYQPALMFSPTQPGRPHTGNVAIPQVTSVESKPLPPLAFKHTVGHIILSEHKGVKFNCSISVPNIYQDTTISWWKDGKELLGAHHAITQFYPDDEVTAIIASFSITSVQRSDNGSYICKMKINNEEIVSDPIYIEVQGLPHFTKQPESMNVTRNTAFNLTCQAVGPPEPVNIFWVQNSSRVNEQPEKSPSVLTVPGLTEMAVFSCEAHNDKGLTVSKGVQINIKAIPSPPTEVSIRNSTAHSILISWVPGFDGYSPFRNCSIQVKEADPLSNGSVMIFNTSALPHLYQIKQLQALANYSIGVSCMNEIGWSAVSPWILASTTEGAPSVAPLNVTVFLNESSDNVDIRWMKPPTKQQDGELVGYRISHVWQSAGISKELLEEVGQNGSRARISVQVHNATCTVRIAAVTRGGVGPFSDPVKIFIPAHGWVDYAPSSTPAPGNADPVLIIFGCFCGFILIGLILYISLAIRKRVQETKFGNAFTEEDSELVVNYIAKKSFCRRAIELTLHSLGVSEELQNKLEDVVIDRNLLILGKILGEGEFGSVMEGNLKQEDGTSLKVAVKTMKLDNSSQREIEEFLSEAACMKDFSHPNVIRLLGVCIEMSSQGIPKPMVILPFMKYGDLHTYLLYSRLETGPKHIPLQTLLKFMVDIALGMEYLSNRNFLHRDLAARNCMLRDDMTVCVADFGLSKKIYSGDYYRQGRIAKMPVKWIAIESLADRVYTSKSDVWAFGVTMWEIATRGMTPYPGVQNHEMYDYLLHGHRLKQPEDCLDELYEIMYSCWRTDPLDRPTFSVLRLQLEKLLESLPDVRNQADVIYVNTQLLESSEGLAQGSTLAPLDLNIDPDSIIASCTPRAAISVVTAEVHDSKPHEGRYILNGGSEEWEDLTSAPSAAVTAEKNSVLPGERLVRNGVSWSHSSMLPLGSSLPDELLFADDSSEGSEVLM

| SMILES | IC50 [1] [nM] | IC50 [2] [nM] | IC50 [3] [nM] |
| --- | --- | --- | --- |
| CC(C)C(=O)N1CCC(c2cc(-c3ccc(NC(=O)c4nn(C(C)C)c(=O)n(-c5ccccc5)c4=O)cc3)c3c(N)ncnn23)CC1 [Example 96, N-(4-(4-Amino-7-(1-isobutyrylpiperidin-4-yl)pyrrolo[1,2-f][1,2,4]triazin-5-yl)phenyl)-2-isopropyl-3,5-dioxo-4-phenyl-2,3,4,5-tetrahydro-1,2,4-triazine-6-carboxamide] | ≤ 5 | ≤ 5 | 10 to 100 |
| Cc1c(-c2cncc(F)c2)c(=O)c(C(=O)Nc2ccc(-c3cc(C4CCN(C(=O)C(C)C)CC4)n4ncnc(N)c34)cc2)cn1C(C)C [Example 98, N-(4-(4-Amino-7-(1-isobutyrylpiperidin-4-yl)pyrrolo[2,1-f][1,2,4]triazin-5-yl)phenyl)-5′-fluoro-1-isopropyl-2-methyl-4-oxo-1,4-dihydro-[3,3′-bipyridine]-5-carboxamide] | ≤ 5 | ≤ 5 | 10 to 100 |
| Cc1c(-c2cccc(C#N)c2)c(=O)c(C(=O)Nc2ccc(-c3cc(C4CCN(C(=O)C(C)C)CC4)n4ncnc(N)c34)cc2)cn1C(C)C [Example 99, N-(4-(4-Amino-7-(1-isobutyrylpiperidin-4-yl)pyrrolo[2,1-f][1,2,4]triazin-5-yl)phenyl)-5-(3-cyanophenyl)-1-isopropyl-6-methyl-4-oxo-1,4-dihydropyridine-3-carboxamide] | ≤ 5 | ≤ 5 | 10 to 100 |
| Cc1c(Br)cc(C(=O)Nc2ccc(-c3cc(C4CCN(C(=O)C(C)C)CC4)n4ncnc(N)c34)cc2)c(=O)n1-c1cncc(F)c1 [Example 101, N-(4-(4-Amino-7-(1-isobutyrylpiperidin-4-yl)pyrrolo[1,2-f][1,2,4]triazin-5-yl)phenyl)-5-bromo-1-(5-fluoropyridin-3-yl)-6-methyl-2-oxo-1,2-dihydropyridine-3-carboxamide] | ≤ 5 | ≤ 5 | > 100 |
| Cc1c(CC#N)cc(C(=O)Nc2ccc(-c3cc(C4CCN(C(=O)C(C)C)CC4)n4ncnc(N)c34)cc2)c(=O)n1-c1cncc(F)c1 [Example 102, N-(4-(4-Amino-7-(1-isobutyrylpiperidin-4-yl)pyrrolo[2,1-f][1,2,4]triazin-5-yl)phenyl)-5-(cyanomethyl)-5′-fluoro-6-methyl-2-oxo-2H-[1,3′-bipyridine]-3-carboxamide] | ≤ 5 | ≤ 5 | 10 to 100 |
| Cc1c(-c2cscn2)cc(C(=O)Nc2ccc(-c3cc(C4CCN(C(=O)C(C)C)CC4)n4ncnc(N)c34)cc2)c(=O)n1-c1cncc(F)c1 [Example 103, N-(4-(4-Amino-7-(1-isobutyrylpiperidin-4-yl)pyrrolo[2,1-f][1,2,4]triazin-5-yl)phenyl)-5′-fluoro-6-methyl-2-oxo-5-(thiazol-4-yl)-2H-[1,3′-bipyridine]-3-carboxamide] | ≤ 5 | ≤ 5 | 10 to 100 |
| Cc1cc(C(=O)Nc2ccc(-c3cc(C4CCN(C(=O)C(C)C)CC4)n4ncnc(N)c34)cc2)c(=O)n(-c2ccccc2)c1-c1cccnc1 [Example 106, N-(4-(4-Amino-7-(1-isobutyrylpiperidin-4-yl)pyrrolo[2,1-f][1,2,4]triazin-5-yl)phenyl)-3-methyl-6-oxo-1-phenyl-1,6-dihydro-[2,3′-bipyridine]-5-carboxamide] | ≤ 5 | ≤ 5 | > 100 |
| Cc1c(-c2ncccn2)cc(C(=O)Nc2ccc(-c3cc(C4CCN(C(=O)C(C)C)CC4)n4ncnc(N)c34)cc2)c(=O)n1-c1ccccc1 [Example 108, N-{4-[4-Amino-7-(1-isobutyrylpiperidin-4-yl)pyrrolo[2,1-f][1,2,4]triazin-5-yl]phenyl}-6-methyl-2-oxo-1-phenyl-5-pyrimidin-2-yl-1,2-dihydropyridine-3-carboxamide] | ≤ 5 | ≤ 5 | 10 to 100 |
| Cc1c(-c2ncccn2)cc(C(=O)Nc2ccc(-c3cc(C4CCN(C)CC4)n4ncnc(N)c34)cc2)c(=O)n1-c1ccccc1 [Example 109] | ≤ 5 | ≤ 5 | 5 to 10 |
| Cc1c(C#N)cc(C(=O)Nc2ccc(-c3cc(C4CCN(C(=O)C(C)C)CC4)n4ncnc(N)c34)cc2)c(=O)n1-c1ccccc1 [Example 111, N-(4-(4-Amino-7-(1-isobutyrylpiperidin-4-yl)pyrrolo[2,1-f][1,2,4]triazin-5-yl)phenyl)-5-cyano-6-methyl-2-oxo-1-phenyl-1,2-dihydropyridine-3-carboxamide] | ≤ 5 | ≤ 5 | > 100 |
| CC(C)C(=O)N1CCC(c2cc(-c3ccc(NC(=O)c4cc5c(n(-c6cncc(F)c6)c4=O)CCCC5=O)cc3)c3c(N)ncnn23)CC1 [Example 113, N-(4-(4-Amino-7-(1-isobutyrylpiperidin-4-yl)pyrrolo[1,2-f][1,2,4]triazin-5-yl)phenyl)-1-(5-fluoropyridin-3-yl)-2,5-dioxo-1,2,5,6,7,8-hexahydroquinoline-3-carboxamide] | ≤ 5 | ≤ 5 | 10 to 100 |
| CC(C)C(=O)N1CCC(c2cc(-c3ccc(NC(=O)c4cc5c(n(-c6cccnc6)c4=O)CC(C)(C)CC5=O)cc3)c3c(N)ncnn23)CC1 [Example 114, N-(4-(4-Amino-7-(1-isobutyrylpiperidin-4-yl)pyrrolo[1,2-f][1,2,4]triazin-5-yl)phenyl)-7,7-dimethyl-2,5-dioxo-1-(pyridin-3-yl)-1,2,5,6,7,8-hexahydroquinoline-3-carboxamide] | ≤ 5 | ≤ 5 | 10 to 100 |
| CC(C)C(=O)N1CCC(c2cc(-c3ccc(NC(=O)c4cnc(-c5cccnc5)n(-c5ccccc5)c4=O)cc3)c3c(N)ncnn23)CC1 [Example 116, N-{4-[4-Amino-7-(1-isobutyrylpiperidin-4-yl)pyrrolo[2,1-f][1,2,4]triazin-5-yl]phenyl}-6-oxo-1-phenyl-2-pyridin-3-yl-1,6-dihydropyrimidine-5-carboxamide] | ≤ 5 | ≤ 5 | 10 to 100 |
| Cc1c(Br)cc(C(=O)Nc2ccc(-c3cc(C4CCN(C(=O)C(C)C)CC4)n4ncnc(N)c34)cc2)c(=O)n1-c1ccccn1 [Example 118, N-(4-(4-Amino-7-(1-isobutyrylpiperidin-4-yl)pyrrolo[2,1-f][1,2,4]triazin-5-yl)phenyl)-5-bromo-6-methyl-2-oxo-2H-[1,2′-bipyridine]-3-carboxamide] | ≤ 5 | ≤ 5 | > 100 |
| Cc1c(-c2ncco2)c(=O)c(C(=O)Nc2ccc(-c3cc(C4CCN(C(=O)C(C)C)CC4)n4ncnc(N)c34)cc2)cn1C1CC1 [Example 119, N-(4-(4-Amino-7-(1-isobutyrylpiperidin-4-yl)pyrrolo[2,1-f][1,2,4]triazin-5-yl)phenyl)-1-cyclopropyl-6-methyl-5-(oxazol-2-yl)-4-oxo-1,4-dihydropyridine-3-carboxamide] | ≤ 5 | ≤ 5 | > 100 |
| CC(C)C(=O)N1CCC(c2cc(-c3ccc(NC(=O)c4cc(C#C[C@H](C)O)cn(-c5ccccc5)c4=O)cc3)c3c(N)ncnn23)CC1 [Example 120, (S)—N-(4-(4-Amino-7-(1-isobutyrylpiperidin-4-yl)pyrrolo[2,1-f][1,2,4]triazin-5-yl)phenyl)-5-(3-hydroxybut-1-yn-1-yl)-2-oxo-1-phenyl-1,2-dihydropyridine-3-carboxamide] | ≤ 5 | ≤ 5 | > 100 |
| Cc1cc(C(=O)Nc2ccc(-c3cc(C4CCN(C(=O)C(C)C)CC4)n4ncnc(N)c34)cc2)c(=O)n(-c2cncc(F)c2)c1C [Example 121, N-(4-(4-Amino-7-(1-isobutyrylpiperidin-4-yl)pyrrolo[2,1-f][1,2,4]triazin-5-yl)phenyl)-5′-fluoro-5,6-dimethyl-2-oxo-2H-[1,3′-bipyridine]-3-carboxamide] | ≤ 5 | ≤ 5 | > 100 |
| Cc1c(CC#N)cc(C(=O)Nc2ccc(-c3cc(C4CCN(C(=O)C(C)C)CC4)n4ncnc(N)c34)cc2)c(=O)n1-c1ccccn1 [Example 122, N-(4-(4-Amino-7-(1-isobutyrylpiperidin-4-yl)pyrrolo[1,2-f][1,2,4]triazin-5-yl)phenyl)-5-(cyanomethyl)-6-methyl-2-oxo-1-(pyridin-2-yl)-1,2-dihydropyridine-3-carboxamide] | ≤ 5 | ≤ 5 | > 100 |
| Cc1c(-c2ccn(C)n2)cc(C(=O)Nc2ccc(-c3cc(C4CCN(C(=O)C(C)C)CC4)n4ncnc(N)c34)cc2)c(=O)n1-c1ccccn1 [Example 125, N-(4-(4-Amino-7-(1-isobutyrylpiperidin-4-yl)pyrrolo[2,1-f][1,2,4]triazin-5-yl)phenyl)-6-methyl-5-(1-methyl-1H-pyrazol-3-yl)-2-oxo-2H-[1,2′-bipyridine]-3-carboxamide] | ≤ 5 | ≤ 5 | > 100 |
| Cc1c(-c2ncco2)cc(C(=O)Nc2ccc(-c3cc(C4CCN(C(=O)C(C)C)CC4)n4ncnc(N)c34)cc2)c(=O)n1-c1ccccn1 [Example 126, N-(4-(4-Amino-7-(1-isobutyrylpiperidin-4-yl)pyrrolo[2,1-f][1,2,4]triazin-5-yl)phenyl)-6-methyl-5-(oxazol-2-yl)-2-oxo-2H-[1,2′-bipyridine]-3-carboxamide] | ≤ 5 | ≤ 5 | > 100 |
| Cc1c(C(F)F)cc(C(=O)Nc2ccc(-c3cc(C4CCN(C(=O)C(C)C)CC4)n4ncnc(N)c34)cc2)c(=O)n1-c1ccccn1 [Example 127, N-(4-(4-Amino-7-(1-isobutyrylpiperidin-4-yl)pyrrolo[2,1-f][1,2,4]triazin-5-yl)phenyl)-5-(difluoromethyl)-6-methyl-2-oxo-2H-[1,2′-bipyridine]-3-carboxamide] | ≤ 5 | ≤ 5 | > 100 |
